Test results published in patent US11512089B2, “Substituted [1,2,4]triazolo[3,4-a]phthalazines as modulators of GABAA receptor activity” (SHANGHAI SIMR BIOTECHNOLOGY CO., LTD, priority 2018, dated 2022).
Converted amounts (≈) assume the structure as drawn.

What was measured:
α5-GABAA receptor = molecular target: T1, α5-GABAA receptor (Homo sapiens, UniProt P18507+P31644); test: Whole cell patch clamp, inverse agonism efficacy on GABA-induced current in HEK-293 cells expressing α5-GABAA receptor; type: cell-based; conditions: HEK293; compound 100 nM, GABA 0.05 μM; ratio to reference compound Example 7 in CN106854207A in the same batch
T1 construct: expressed in transfected cells; host or cells: HEK-293 (monoclonal, stably transfected)
T1 sequence (P31644 32-462): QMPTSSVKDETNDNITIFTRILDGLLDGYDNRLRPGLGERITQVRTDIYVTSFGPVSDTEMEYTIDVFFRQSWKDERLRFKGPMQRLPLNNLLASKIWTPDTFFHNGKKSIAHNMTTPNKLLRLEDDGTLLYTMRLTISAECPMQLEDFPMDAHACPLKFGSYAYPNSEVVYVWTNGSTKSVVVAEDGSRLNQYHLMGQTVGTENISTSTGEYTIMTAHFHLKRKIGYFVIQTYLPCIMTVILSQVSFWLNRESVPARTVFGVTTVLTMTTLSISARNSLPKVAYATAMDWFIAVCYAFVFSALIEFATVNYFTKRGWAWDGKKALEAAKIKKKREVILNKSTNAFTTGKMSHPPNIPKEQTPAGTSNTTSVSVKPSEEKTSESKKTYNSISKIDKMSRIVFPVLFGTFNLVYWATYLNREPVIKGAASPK
T1 sequence (P28472 26-473 partner): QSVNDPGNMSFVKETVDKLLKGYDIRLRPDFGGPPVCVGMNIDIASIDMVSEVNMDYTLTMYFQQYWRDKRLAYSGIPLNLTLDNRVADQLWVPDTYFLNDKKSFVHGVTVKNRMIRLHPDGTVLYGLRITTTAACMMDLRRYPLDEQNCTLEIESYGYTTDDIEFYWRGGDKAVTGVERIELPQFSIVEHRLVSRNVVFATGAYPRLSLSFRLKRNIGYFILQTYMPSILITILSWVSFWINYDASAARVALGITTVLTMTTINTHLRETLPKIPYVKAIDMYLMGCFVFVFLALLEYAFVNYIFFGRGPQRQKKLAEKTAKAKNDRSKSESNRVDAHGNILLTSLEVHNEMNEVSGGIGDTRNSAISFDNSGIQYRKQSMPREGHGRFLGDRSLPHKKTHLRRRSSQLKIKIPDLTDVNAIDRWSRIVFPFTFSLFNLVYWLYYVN
T1 sequence (P18507 40-467 isoform P18507-1 limits assumed): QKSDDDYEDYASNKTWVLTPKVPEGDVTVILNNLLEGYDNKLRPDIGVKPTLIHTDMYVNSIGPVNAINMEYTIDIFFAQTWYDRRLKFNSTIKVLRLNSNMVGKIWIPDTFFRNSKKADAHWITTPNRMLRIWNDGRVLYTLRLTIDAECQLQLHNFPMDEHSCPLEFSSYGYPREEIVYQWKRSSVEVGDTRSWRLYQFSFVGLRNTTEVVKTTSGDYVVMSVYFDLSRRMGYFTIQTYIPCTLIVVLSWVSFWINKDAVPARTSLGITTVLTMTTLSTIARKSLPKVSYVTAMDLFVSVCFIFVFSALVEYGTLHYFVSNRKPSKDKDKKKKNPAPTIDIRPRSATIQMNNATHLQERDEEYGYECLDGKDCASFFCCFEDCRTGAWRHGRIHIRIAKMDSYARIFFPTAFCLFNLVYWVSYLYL
Description: The inventors used electrophysiological methods to determine the inverse agonist efficacy of the substances to be tested. The detailed procedures are as follows:
(1) Different subunits of GABAA receptors were expressed in human embryonic kidney cells 293 (HEK293). The cells were cultured in a culture medium and used as a cell model for screening potential analgesics. The α, β and γ subunits are necessary to form complete functional GABAA receptors. In this example, the inventors have established the following cell model: (a) α5 subunit (protein sequence is GenBank accession number: NM_000810.3), (33 subunit (protein sequence is GenBank accession number: NM_000814.5) and γ2 subunit (protein sequence is GenBank accession number: NM_000816.3) were expressed in HEK-293 cell line at the same time, followed by screening the monoclonal cell line. This cell line contained α5-GABAA receptor and had complete GABAA receptor function.
(2) The monoclonal stably transfected HEK-293 cells expressing α5-GABAA receptor were cultured in 10 cm culture dishes. The cells were passaged after reaching 80-90% confluence. During passaging, the culture medium was removed and discarded, 3 mL of DPBS (phosphate buffered saline, Gibco™) was added to the dishes, the dishes were shaken slightly, and DPBS was removed and discarded. 1 mL of trypsin (TrypLE Express, Gibco™) was added and the cells were digested at 37° C. for 1-2 minutes. Then 3 mL of complete medium (DMEM+10% FBS (Gibco™)) was added and the cells at the bottom of the culture dishes were dispersed. The cell suspension were transferred to a 15 mL centrifugal tube (Corning™) and then centrifuged at 200 g for 3 minutes. The supernatant was discarded, 4 mL of complete medium was added, and the cells were resuspended by gently blowing. The cell suspension was diluted by 1:5 or 1:10 for subculturing. The cell suspension was diluted by 1:12 for electrophysiology experiment, and added to a 24 well plate (Corning™) with a glass slide pre-treated with poly-D-lysine placed thereon; the experiment was initiated after the cells were adhered to the slide. The cells for electrophysiology experiment were maintained in culture for no more than 48 hours before use.
(3) Compound concentration: for screening, all compounds were diluted to a final concentration of 100 nM and the concentration of GABA was 0.05 μM. The compounds were at the concentration of 0.3 nM, 3 nM, 10 nM, 30 nM, 100 nM and 300 nM in dose-inverse agonism efficacy (%) experiment. The whole cell patch clamp technique was used in electrophysiology experiments, which can refer to the literature (I. Lecker, Y. Yin, D. S. Wang and B. A. Orser, (2013) Potentiation of GABAA receptor activity by volatile anaesthetics is reduced by α5-GABAA receptor-preferring inverse agonists, British Journal of Anaesthesia 110 (S1): i73-i81). The extracellular solution (ECS) contained: 150 mM NaCl, 5 mM KCl, 2.5 mM CaCl2, 1 mM MgCl2, 10 mM HEPES and 10 mM glucose (pH 7.4); Patch electrodes were filled with an intracellular solution containing: 140 mM CsCl, 11 mM EGTA, 10 mM HEPES, 2 mM CaCl2, 1 mM MgCl2, 4 mM MgATP, 2 mM TEA (pH 7.3). The currents were recorded by an EPC-10 amplifier and the PatchMaster software (HEKA). Patch electrodes with a resistance of 4-6 MΩ were pulled from borosilicate glass. The ALA-VC3-8PP™ system was used for extracellular administration. Separate cells that grew independently was selected for recording. During recording, the membrane voltage was clamped at −60 mV. During experiment, the cells were firstly perfused with ECS for 20 seconds. When the baseline reached to a stable state, the cells were then perfused with GABA solution. Then the current induced by GABA could be detected. After about 20 to 40 seconds, the current was stable. ECS was switched to compounds solution and the effects of the compounds were detected. At last, the perfusion solution was switched to ECS. […]

[1] = Kinetic solubility in 50 mM phosphate buffer pH 7.4; type: physicochemical; conditions: aqueous buffer, kinetic from dmso stock, 50 mM phosphate buffer pH 7.4, 2% DMSO, room temperature
Description: 50 mM phosphate buffer pH=7.4: 0.39 g of NaH2PO4.2H2O, and 1.4025 g of Na2HPO4 were weighted and placed in an erlenmeyer flask, 240 mL of water was added. The solid was dissolved and mixed thoroughly, the pH value was adjusted to 7.4 with 10M NaOH solution, and the resulting solution was transferred to a 250 mL volumetric flask, followed by adding water to the mark.
Waters e2695 HPLC high performance liquid chromatography, Mettler XSE105 analytical balance.
Firstly, a 10 mM stock solution with DMSO as the solvent was prepared, and was diluted with a diluent (ACN: PB buffer 50:50) into 1 μM-200 μM as standard solution.
Kinetic solubility. 30 μL of the stock solution was placed in a 2 mL centrifuge tube, 1470 μL of 50 mM phosphate buffer (pH 7.4) (containing DMSO at a final concentration of 2%) was added. The mixture was shaken at room temperature (1000 rpm/min) for 24 hours, and then filtered. The filtrate was tested by high performance liquid chromatography (UV).

Row | SMILES | Emax at 0.1 µM (α5-GABAA receptor) [%] | solubility kinetic at 24 h [1] [µg/mL]
1 | COCc1cc(-c2nnc3c4ccccc4c(OCc4ccc(C(=O)NC5CC(F)(F)C5)cn4)nn23)no1 [Compound 03, N-(3,3-difluoro-cyclobutyl)-6-[3-(5-methoxymethyl-isoxazol-3-yl)-[1,2,4]triazolo[3,4-a]phthalazin-6-yloxymethyl]-nicotinamide] | 92.1 | 
2 | COCc1cc(-c2nnc3c4ccccc4c(OCc4ccc(C(=O)NC5CCOCC5)cn4)nn23)no1 [Compound 04, 6-[3-(5-methoxymethyl-isoxazol-3-yl)-[1,2,4]triazolo[3,4-a]phthalazin-6-yloxymethyl]-N-(tetrahydro-pyran-4-yl)-nicotinamide] |  | 13.1 (≈ 25.5 µM)
3 | COCCCNC(=O)c1ccc(COc2nn3c(-c4cc(COC)on4)nnc3c3ccccc23)nc1 [Compound 08, 6-[3-(5-methoxymethyl-isoxazol-3-yl)-[1,2,4]triazolo[3,4-a]phthalazin-6-yloxymethyl]-N-(3-methoxy-propyl)-nicotinamide] | 110 | 
4 | COCc1cc(-c2nnc3c4ccccc4c(OCc4ccc(C(=O)N[C@H](C)COC)cn4)nn23)no1 [Compound 09, (R)—N-(2-methoxy-1-methyl-ethyl)-6-[3-(5-methoxymethyl-isoxazol-3-yl)-[1,2,4]triazolo[3,4-a]phthalazin-6-yloxymethyl]-nicotinamide] |  | 27.7 (≈ 55 µM)
5 | COCc1cc(-c2nnc3c4ccccc4c(OCc4ccc(C(=O)NCCOC(F)(F)F)cn4)nn23)no1 [Compound 13, 6-[3-(5-methoxymethyl-isoxazol-3-yl)-[1,2,4]triazolo[3,4-a]phthalazin-6-yloxymethyl]-N-(2-trifluoromethoxy-ethyl)-nicotinamide] |  | 0.57 (≈ 1.05 µM)
6 | COCc1cc(-c2nnc3c4ccccc4c(OCc4ccc(C(=O)NC(C)(C)COC)cn4)nn23)no1 [Compound 14, N-(2-methoxy-1,1-dimethyl-ethyl)-6-[3-(5-methoxymethyl-isoxazol-3-yl)-[1,2,4]triazolo[3,4-a]phthalazin 6-yloxymethyl]-nicotinamide] |  | 35.7 (≈ 68.9 µM)
7 | COCc1cc(-c2nnc3c4ccccc4c(OCc4ccc(C(=O)NCCO)cn4)nn23)no1 [Compound 16, N-(2-hydroxy-ethyl)-6-[3-(5-methoxymethyl-isoxazol-3-yl)-[1,2,4]triazolo[3,4-a]phthalazin-6-yloxymethyl]-nicotinamide] |  | 49.4 (≈ 104 µM)
8 | COCc1cc(-c2nnc3c4ccccc4c(OCc4ccc(C(=O)NC5COC5)cn4)nn23)no1 [Compound 17, 6-[3-(5-methoxymethyl-isoxazol-3-yl)-[1,2,4]triazolo[3,4-a]phthalazin-6-yloxymethyl]-N-oxetan-3-yl-nicotinamide] | 105 | 
9 | COCc1cc(-c2nnc3c4ccccc4c(OCc4ccc(C(=O)NC5(C#N)CC5)cn4)nn23)no1 [Compound 19] |  | 1.06 (≈ 2.14 µM)
10 | COCc1cc(-c2nnc3c4ccccc4c(OCc4ccc(C(=O)NC5CC(F)C5)cn4)nn23)no1 (centres unmarked) [Compound 21] |  | 1.18 (≈ 2.34 µM)
11 | COCc1cc(-c2nnc3c4ccccc4c(OCc4ccc(C(=O)NCCF)cn4)nn23)no1 [Compound 22] |  | 8.92 (≈ 18.7 µM)
12 | COCc1cc(-c2nnc3c4ccccc4c(OCc4ccc(C(=O)NCC(F)(F)CO)cn4)nn23)no1 [Compound 25] |  | 2.71 (≈ 5.16 µM)
13 | COCc1cc(-c2nnc3c4ccccc4c(OCc4ccc(C(=O)NC5CCOC5)cn4)nn23)no1 (centres unmarked) [Compound 26, 6-[3-(5-methoxymethyl-isoxazol-3-yl)-[1,2,4]triazolo[3,4-a]phthalazin-6-yloxymethyl]-N-(tetrahydrofuran-3-yl)-nicotinamide] |  | 20.3 (≈ 40.6 µM)
14 | COCc1cc(-c2nnc3c4ccccc4c(OCc4ccc(C(=O)NC(C)C(F)(F)F)cn4)nn23)no1 (centres unmarked) [Compound 27] |  | 5.58 (≈ 10.6 µM)
15 | COCc1cc(-c2nnc3c4ccccc4c(OCc4ccc(C(=O)NC5CCC(F)(F)CC5)cn4)nn23)no1 [Compound 33] |  | 2.99 (≈ 5.44 µM)
16 | COCc1cc(-c2nnc3c4ccccc4c(OCc4ccc(C(=O)NC5CCC(F)(F)C5)cn4)nn23)no1 (centres unmarked) [Compound 35] |  | 5.62 (≈ 10.5 µM)
17 | COCc1cc(-c2nnc3c4ccccc4c(OCc4ccc(C(N)=O)cn4)nn23)no1 [Compound 36] |  | 0.8 (≈ 1.85 µM)
18 | COCc1cc(-c2nnc3c4ccccc4c(OCc4ccc(C(=O)N5CC(O)C5)cn4)nn23)no1 [Compound 41] |  | 6.57 (≈ 13.5 µM)
19 | COCc1cc(-c2nnc3c4ccccc4c(OCc4ccc(C(=O)N5CC(C)OC(C)C5)cn4)nn23)no1 (centres unmarked) [Compound 44] |  | 74.6 (≈ 141 µM)
20 | COCc1cc(-c2nnc3c4ccccc4c(OCc4ccc(C(=O)N5CC(F)(F)C5)cn4)nn23)no1 [Compound 46, (3,3-difluoroazetidin-1-yl)(6-(((3-(5-(methoxymethyl)isoxazol-3-yl)[1,2,4]triazolo[3,4-a]phthalazin-6-yl)oxy)methyl)pyridin-3-yl)methanone] | 94.6 | 
21 | COCc1cc(-c2nnc3c4ccccc4c(OCc4ccc(C(=O)N5CCCCC5)cn4)nn23)no1 [Compound 49, (6-(((3-(5-(methoxymethyl)isoxazol-3-yl)-[1,2,4]triazolo[3,4-a]phthalazin-6-yl)oxy)methyl)pyridin-3-yl)(piperidin-1-yl)methanone] | 75.2 | 
22 | COCc1cc(-c2nnc3c4ccccc4c(OCc4ccc(C(=O)N(C)C5CC5)cn4)nn23)no1 [Compound 50] |  | 3.75 (≈ 7.72 µM)
23 | COCc1cc(-c2nnc3c4ccccc4c(OCc4ccc(C(=O)N5CCC(F)(F)C5)cn4)nn23)no1 [Compound 51] |  | 5.62 (≈ 10.8 µM)
24 | COCCN(CCOC)C(=O)c1ccc(COc2nn3c(-c4cc(COC)on4)nnc3c3ccccc23)nc1 [Compound 52] |  | 51.9 (≈ 94.7 µM)
25 | COCc1cc(-c2nnc3c4ccccc4c(OCc4ccc(C(=O)N5CCN(C)C(=O)C5)cn4)nn23)no1 [Compound 53] |  | 28 (≈ 53 µM)
26 | COCc1cc(-c2nnc3c4ccccc4c(OCc4ccc(C(=O)N5CCCOCC5)cn4)nn23)no1 [Compound 55] |  | 102 (≈ 197 µM)
27 | COCc1cc(-c2nnc3c4ccccc4c(OCc4ccc(C(=O)N5CCC(OC)CC5)cn4)nn23)no1 [Compound 57, (6-(((3-(5-(methoxymethyl)isoxazol-3-yl)-[1,2,4]triazolo[3,4-a]phthalazin-6-yl)oxy)methyl)pyridin-3-yl)(4-methoxypiperidin-1-yl)methanone] |  | 26.5 (≈ 50 µM)
28 | COCc1cc(-c2nnc3c4ccccc4c(OCc4ccc(C(=O)N(C)CC(F)(F)F)cn4)nn23)no1 [Compound 58] |  | 1.46 (≈ 2.77 µM)
29 | Cc1cc(-c2nnc3c4ccccc4c(OCc4ccc(C(=O)NC5CCOCC5)cn4)nn23)no1 [reference compound] |  | 3.88 (≈ 7.99 µM)
